Several values for one entry are separate records, joined by “and”; a condition that tells them apart may be missing. Equal values may be shown once.
Tests used:
[1] = biological target: human TRPA1 (Homo sapiens (Human), UniProt O75762); assay: In vitro inhibition of human TRPA1, whole cell patch configuration; format: cell-based; details: current activation 10 μM AITC, tested concentrations 320 pM to 3.2 μM, read-out: hTRPA1 IC50
Outline: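 Whole-cell patch clamp, bath 150 mM NaCl, 10 mM HEPES, 1 mM EGTA, 3 mM MgCl2, pH 7.4 (sometimes 2 mM CaCl2, 1 mM MgCl2). Currents recorded continuously at −60 mV or by 400 ms ramps from −40 mV holding every 4 s; inward/outward currents taken at −80/80 mV, with controlled-temperature focal perfusion.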

[2] = test system: formalin-induced pain behaviors in the rat; assay: Formalin-induced pain test (formalin model), duration of pain behaviors; format: in vivo
Outline: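 Rats dosed orally with vehicle or compound (solutions with DMSO, Solutol, Labrasol, Tween-80, Cremophor EL, or methylcellulose suspensions) one hour before intraplantar injection of 50 μL 3% formalin into hind paw. Duration of pain behaviors counted by blinded observer; Phase I covers 0-5 min; comparison to vehicle.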

[3] = test system: CFA-induced cold hypersensitivity of the hind paw; assay: CFA-induced pain test, cold hypersensitivity (cold plate paw withdrawal latency); format: in vivo; details: cold plate 1° C.; for Average PWL Post-Treatment / PWL Change: 1-2 hour pre-treatment; for Average PWL Post-CFA: baseline before dosing
Description: Embodiments of the invention may be efficacious in the treatment of inflammatory pain. Compounds of the invention were tested by the CFA-induced pain test method. Compounds were formulated as solutions in water with various solvents and excipients including dimethyl sulfoxide (DMSO), polyethylene glycol (15)-hydroxystearate (Solutol®, Sigma-Aldrich), caprylocaproyl macrogol-8 glyceride (Labrasol®, Sigma-Aldrich), polysorbate-80 (Tween®-80, Sigma-Aldrich), and polyoxyl 35 castor oil (Cremophor® EL, BASF Corp.); or suspensions in methylcellulose as indicated in Table 3 for oral delivery. Briefly, the hind paw was sensitized to cold temperature (allodynic) by administering 0.1 mL of Complete Freund's Adjuvant (CFA) to the right hind paw. Three days later, the time taken for the animal to lift its CFA-injected paw was recorded compared to its un-injected normal left hind paw. […] To avoid tissue damage the maximum cut-off time was 5 minutes. Animals that were allodynic (average PWL to the first three pain behaviors <150 seconds for the CFA-injected hind paw: ˜≥50% difference between the normal and CFA-injected paw) were included in the study and subsequently randomized across treatment groups. The following day, the animals were dosed orally under blinded conditions. Following the 1-2 hour pre-treatment time, the post-dose PWL readings were again taken. The efficacy of the drug treatment was assessed by comparing the PWL in the drug treatment animals to those animals that receive the vehicle. P values, when indicated, indicate significance compared Vehicle.

[4] = 1 mg/kg PO one hour prior to formalin, solution in 4% DMSO, 5% Tween-80, 20% Cremophor EL, 71% water
[5] = 1 mg/kg PO one hour prior to formalin, suspension in 0.5% methylcellulose
[6] = 3 mg/kg PO one hour prior to formalin, solution in 4% DMSO, 5% Tween-80, 20% Cremophor EL, 71% water
[7] = 3 mg/kg PO one hour prior to formalin, suspension in 0.5% methylcellulose
[8] = 10 mg/kg PO one hour prior to formalin, solution in 4% DMSO, 5% Tween-80, 20% Cremophor EL, 71% water
[9] = 10 mg/kg PO one hour prior to formalin, suspension in 0.5% methylcellulose
[10] = 30 mg/kg PO one hour prior to formalin, suspension in 0.5% methylcellulose
[11] = 0.3 mg/kg PO, solution in 4% DMSO, 5% Tween-80, 20% Cremophor EL, and 71% water
[12] = 0.3 mg/kg PO, suspension in 0.5% methylcellulose
[13] = 1 mg/kg PO, solution in 4% DMSO, 5% Tween-80, 20% Cremophor EL, and 71% water
[14] = 1 mg/kg PO, suspension in 0.5% methylcellulose
[15] = 3 mg/kg PO, solution in 4% DMSO, 5% Tween-80, 20% Cremophor EL, and 71% water
[16] = 3 mg/kg PO, suspension in 0.5% methylcellulose
[17] = group 0.3 mg/kg PO, solution in 4% DMSO, 5% Tween-80, 20% Cremophor EL, and 71% water
[18] = group 1 mg/kg PO, solution in 4% DMSO, 5% Tween-80, 20% Cremophor EL, and 71% water
[19] = group 3 mg/kg PO, solution in 4% DMSO, 5% Tween-80, 20% Cremophor EL, and 71% water
[20] = 1 mg/kg PO one hour prior to formalin, solution in 4% DMSO, 5% Tween-80, 25% Cremophor EL, 66% water
[21] = 1 mg/kg PO one hour prior to formalin, solution in 8% DMSO and 92% Labrasol
[22] = 3 mg/kg PO one hour prior to formalin, solution in 4% DMSO, 5% Tween-80, 25% Cremophor EL, 66% water
[23] = 3 mg/kg PO one hour prior to formalin, solution in 8% DMSO and 92% Labrasol
[24] = 10 mg/kg PO one hour prior to formalin, solution in 4% DMSO, 5% Tween-80, 25% Cremophor EL, 66% water
[25] = 10 mg/kg PO one hour prior to formalin, solution in 8% DMSO and 92% Labrasol
[26] = 30 mg/kg PO one hour prior to formalin, solution in 8% DMSO and 92% Labrasol
[27] = 1 mg/kg PO, solution in 4% DMSO, 5% Tween-80, 25% Cremophor EL, and 66% water
[28] = 3 mg/kg PO, solution in 4% DMSO, 5% Tween-80, 25% Cremophor EL, and 66% water
[29] = 10 mg/kg PO, solution in 4% DMSO, 5% Tween-80, 25% Cremophor EL, and 66% water

human TRPA1, sequence (O75762 whole entry, the tested form may be a part): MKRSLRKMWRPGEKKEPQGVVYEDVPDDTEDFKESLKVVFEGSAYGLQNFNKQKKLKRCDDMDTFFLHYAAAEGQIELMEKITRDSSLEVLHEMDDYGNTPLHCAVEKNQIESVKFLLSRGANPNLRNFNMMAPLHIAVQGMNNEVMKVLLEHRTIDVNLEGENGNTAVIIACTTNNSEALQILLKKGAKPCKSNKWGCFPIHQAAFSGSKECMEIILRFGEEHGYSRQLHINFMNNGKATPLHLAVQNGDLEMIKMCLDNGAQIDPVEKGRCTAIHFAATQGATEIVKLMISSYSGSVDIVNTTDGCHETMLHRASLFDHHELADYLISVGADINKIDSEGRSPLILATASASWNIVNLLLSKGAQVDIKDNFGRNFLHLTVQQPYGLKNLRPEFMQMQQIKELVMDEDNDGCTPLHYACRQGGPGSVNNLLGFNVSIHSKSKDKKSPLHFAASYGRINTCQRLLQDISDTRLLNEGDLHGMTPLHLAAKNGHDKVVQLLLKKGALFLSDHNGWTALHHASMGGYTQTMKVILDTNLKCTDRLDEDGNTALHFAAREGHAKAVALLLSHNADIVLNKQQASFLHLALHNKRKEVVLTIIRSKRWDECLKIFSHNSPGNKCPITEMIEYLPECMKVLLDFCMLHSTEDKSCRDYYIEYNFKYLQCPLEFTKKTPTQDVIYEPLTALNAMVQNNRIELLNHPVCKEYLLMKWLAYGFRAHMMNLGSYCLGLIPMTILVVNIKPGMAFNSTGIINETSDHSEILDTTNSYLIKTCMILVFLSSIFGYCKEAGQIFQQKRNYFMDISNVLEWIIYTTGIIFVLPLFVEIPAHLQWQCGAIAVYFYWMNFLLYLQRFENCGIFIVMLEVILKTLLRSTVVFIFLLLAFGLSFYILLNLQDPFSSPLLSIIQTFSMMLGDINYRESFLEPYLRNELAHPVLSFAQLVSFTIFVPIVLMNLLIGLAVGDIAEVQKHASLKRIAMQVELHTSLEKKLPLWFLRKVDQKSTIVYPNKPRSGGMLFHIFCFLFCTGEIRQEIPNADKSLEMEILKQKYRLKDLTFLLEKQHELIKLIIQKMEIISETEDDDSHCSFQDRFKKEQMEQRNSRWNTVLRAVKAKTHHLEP

With `Cc1cc(Cn2c(=O)c3c(ncn3[C@@H](C)C(=O)Nc3cncc(-c4cnc(C(F)(F)F)nc4)n3)n(C)c2=O)no1` [Compound 21, (S)-2-(3-methyl-1-((5-methylisoxazol-3-yl)methyl)-2,6-dioxo-2,3-dihydro-1H-purin-7(6H)-yl)-N-(6-(2-(trifluoromethyl)pyrimidin-5-yl)pyrazin-2-yl)propanamide] the IC50 [1] was 19 nM, the “Duration (0-2 Minutes) Average” value [2, 4] was 99.6 s and the “Duration (0-5 Minutes) Average” value [2, 4] was 206.9 s. For the same molecule, the “Duration (0-2 Minutes) Average” value [2, 5] was 80.5 s, the “Duration (0-5 Minutes) Average” value [2, 5] was 202.5 s and the “Duration (0-2 Minutes) Average” value [2, 6] was 97.5 s. The “Duration (0-5 Minutes) Average” value [2, 6] was 186.9 s, the “Duration (0-2 Minutes) Average” value [2, 7] was 86.5 s and the “Duration (0-5 Minutes) Average” value [2, 7] was 190.1 s. The “Duration (0-2 Minutes) Average” value [2, 8] was 71.8 s, the “Duration (0-5 Minutes) Average” value [2, 8] was 116.5 s and the “Duration (0-2 Minutes) Average” value [2, 9] was 78.0 s and 92.3 s. The “Duration (0-5 Minutes) Average” value [2, 9] was 202.8 s and 163.1 s, the “Duration (0-2 Minutes) Average” value [2, 10] was 100.5 s and the “Duration (0-5 Minutes) Average” value [2, 10] was 165.4 s. For the same molecule, the “Average PWL Post-Treatment” value [3, 11] was 159.2, the “PWL Change” value [3, 11] was 49.6 s and the “Average PWL Post-Treatment” value [3, 12] was 106.4. The “PWL Change” value [3, 12] was 11.9 s, the “Average PWL Post-Treatment” value [3, 13] was 208.5 and the “PWL Change” value [3, 13] was 94.2 s. The “Average PWL Post-Treatment” value [3, 14] was 155.2, the “PWL Change” value [3, 14] was 59.8 s and the “Average PWL Post-Treatment” value [3, 15] was 258.9. The “PWL Change” value [3, 15] was 148.8 s, the “Average PWL Post-Treatment” value [3, 16] was 236.7 and the “PWL Change” value [3, 16] was 142.4 s. The “Average PWL Post-CFA” value [3, 17] was 109.6, the “Average PWL Post-CFA” value ([3]; group 0.3 mg/kg PO, suspension in 0.5% methylcellulose) was 94.5 and the “Average PWL Post-CFA” value [3, 18] was 114.3. The “Average PWL Post-CFA” value ([3]; group 1 mg/kg PO, suspension in 0.5% methylcellulose) was 95.4, the “Average PWL Post-CFA” value [3, 19] was 110.1 and the “Average PWL Post-CFA” value ([3]; group 3 mg/kg PO, suspension in 0.5% methylcellulose) was 94.3.

`CC(=O)Cn1c(=O)c2c(ncn2[C@@H](C)C(=O)Nc2csc(-c3cnc(N4CC5CC5C4)nc3)n2)n(C)c1=O` (stereo partly drawn) [Compound 153, (2S)—N-(2-(2-(3-azabicyclo[3.1.0]hexan-3-yl)pyrimidin-5-yl)thiazol-4-yl)-2-(3-methyl-2,6-dioxo-1-(2-oxopropyl)-2,3-dihydro-1H-purin-7(6H)-yl)propanamide] was tested, and the IC50 [1] was 2 nM, the “Duration (0-2 Minutes) Average” value [2, 20] was 71.4 s and the “Duration (0-5 Minutes) Average” value [2, 20] was 164.6 s. The “Duration (0-2 Minutes) Average” value [2, 21] was 84.5 s, the “Duration (0-5 Minutes) Average” value [2, 21] was 172.5 s and the “Duration (0-2 Minutes) Average” value [2, 22] was 81.5 s. For the same molecule, the “Duration (0-5 Minutes) Average” value [2, 22] was 216.9 s, the “Duration (0-2 Minutes) Average” value [2, 23] was 86.4 s and the “Duration (0-5 Minutes) Average” value [2, 23] was 198.8 s. The “Duration (0-2 Minutes) Average” value [2, 24] was 50.1 s, the “Duration (0-5 Minutes) Average” value [2, 24] was 160.3 s and the “Duration (0-2 Minutes) Average” value [2, 25] was 87.9 s. For the same molecule, the “Duration (0-5 Minutes) Average” value [2, 25] was 214.6 s, the “Duration (0-2 Minutes) Average” value [2, 26] was 31.9 s and 52.8 s and the “Duration (0-5 Minutes) Average” value [2, 26] was 173.1 s and 173.4 s. The “Average PWL Post-Treatment” value [3, 27] was 178.1, the “PWL Change” value [3, 27] was 85.6 s and the “Average PWL Post-Treatment” value [3, 28] was 223.6. The “PWL Change” value [3, 28] was 130.8 s, the “Average PWL Post-Treatment” value [3, 29] was 247.1 and the “PWL Change” value [3, 29] was 154.3 s. The “Average PWL Post-CFA” value ([3]; group 1 mg/kg PO, solution in 4% DMSO, 5% Tween-80, 25% Cremophor EL, and 66% water) was 92.5, the “Average PWL Post-CFA” value ([3]; group 3 mg/kg PO, solution in 4% DMSO, 5% Tween-80, 25% Cremophor EL, and 66% water) was 92.8 and the “Average PWL Post-CFA” value ([3]; group 10 mg/kg PO, solution in 4% DMSO, 5% Tween-80, 25% Cremophor EL, and 66% water) was 92.7.

`CC(=O)Cn1c(=O)c2c(ncn2[C@@H](C)C(=O)Nc2cccc(-c3cnc(N4CC5C(C4)C5(F)F)nc3)n2)n(C)c1=O` (stereo partly drawn) [Compound 25, (2S)—N-(6-(2-(6,6-difluoro-3-azabicyclo[3.1.0]hexan-3-yl)pyrimidin-5-yl)pyridin-2-yl)-2-(3-methyl-2,6-dioxo-1-(2-oxopropyl)-2,3-dihydro-1H-purin-7(6H)-yl)propanamide] was tested, and the IC50 [1] was 4 nM, the “Duration (0-2 Minutes) Average” value [2, 4] was 87.8 s and the “Duration (0-5 Minutes) Average” value [2, 4] was 190.1 s. For the same molecule, the “Duration (0-2 Minutes) Average” value [2, 6] was 22.8 s, the “Duration (0-5 Minutes) Average” value [2, 6] was 98.3 s and the “Duration (0-2 Minutes) Average” value [2, 8] was 29.1 s. For the same molecule, the “Duration (0-5 Minutes) Average” value [2, 8] was 146.0 s, the “Average PWL Post-Treatment” value [3, 11] was 170.2 and the “PWL Change” value [3, 11] was 65.2 s. The “Average PWL Post-Treatment” value [3, 13] was 224.8, the “PWL Change” value [3, 13] was 119.7 s and the “Average PWL Post-Treatment” value [3, 15] was 259.9. The “PWL Change” value [3, 15] was 154.9 s, the “Average PWL Post-CFA” value [3, 17] was 105.0 and the “Average PWL Post-CFA” value [3, 18] was 105.1. For the same molecule, the “Average PWL Post-CFA” value [3, 19] was 105.1.

From US10221177B2 (HYDRA BIOSCIENCES, INC., priority 2014, dated 2019)
